According to patent US4108991A, “N-aminosulfenyl derivatives of aldicarb” (priority 1976, dated 1978):

Experiments:
Granary Weevil = test: Residual (7-day) contact activity, granary weevil; type: in vivo; conditions: Sitophilus granarius, 168 h, residual 7-day, GW, read-out: Percent Kill
Milkweed bug [1] = test: Initial contact activity, spray, milkweed bug; type: in vivo, Oncopeltus fasciatus [Dallas]; conditions: Oncopeltus fasciatus, 48 h, initial, MWB, 48 hours, read-out: Percent Kill
Description: (§1) Initial Contact Activity: One half gram of test compound was dissolved in 40 ml of acetone and this solution was dispersed in 360 ml of water containing one drop of isooctylphenyl polyethoxyethanol. Aliquots of this solution, which corresponds to 1250 ppm of active ingredient, were diluted with an appropriate amount of water to provide solutions containing various concentrations of active ingredient. Test organisms and techniques were as follows: The activity against the Mexican bean beetle (Epilachna varivestis Muls.) and the southern armyworm (Spodoptera eridania [Cram.]) was evaluated by dipping the leaves of pinto bean plants into the test solution and infesting the leaves with the appropriate immature-form insects when the foiliage had dried; the activity against the pea aphid (Acyrthosiphon pisum [Harris]) was evaluated on broad bean plants whose leaves were dipped before infestation with adult aphids; the activity against two-sotted spider mites (Tetranychus urticae Koch) was evaluated on pinto bean plants whose leaves were dipped after infestation with adult mites; the activity against the milkweed bug (Oncopeltus fasciatus [Dallas]), and the plum curculio (Conotrachelus nenuphar [Herbst]) was evaluated by spraying the test solutions into glass dishes or jars containing the adult insects; the activity against the confused flour beetle (Tribolium confusum duVal) was evaluated by introducing the insects into glass dishes which had been previously sprayed with test solution and allowed to dry. All organisms in the test were maintained in a holding room at 80° F and 50% relative humidity for an exposure period of 48 hours. At the end of this time, the dead and living insects or mites were counted, and the percent kill was calculated.

Pea aphid [2] = test: Residual (7-day) contact activity, pea aphid; type: in vivo, Acyrthosiphon pisum [Harris]; conditions: Acyrthosiphon pisum, 168 h, residual 7-day, PA, read-out: Percent Kill
Description: as §1
(§2) Residual Contact Activity: The residual contact activity of the compounds was determined on the same organisms using the techniques described above, except that in each case the treated surface was allowed to dry and was exposed to normal light and air for seven days before introduction of the mites or insects.

Mexican bean beetle [3] = test: Residual (7-day) contact activity, Mexican bean beetle; type: in vivo, Epilachna varivestis Muls.; conditions: Epilachna varivestis, 168 h, residual 7-day, BB, read-out: Percent Kill
Description: as §1, §2

Southern armyworm [4] = test: Initial contact activity, leaf dip, southern armyworm; type: in vivo, Spodoptera eridania [Cram.]; conditions: Spodoptera eridania, foliar, 48 h, initial, AW, 48 hours, read-out: Percent Kill
Description: as §1

Two-spotted spider mite [5] = test: Residual (7-day) contact activity, two-spotted spider mite; type: in vivo, Tetranychus urticae Koch; conditions: Tetranychus urticae, 168 h, residual 7-day, SM, read-out: Percent Kill
Description: as §1, §2

Two-spotted spider mite [6] = test: Systemic activity, soil-watering, two-spotted spider mite; type: in vivo, Tetranychus urticae Koch; conditions: Tetranychus urticae, 48 h, systemic, SM, read-out: Percent Kill
Description: as §1
(§3) Systemic Activity: Systemic activity was measured using a soil-watering technique. Test organisms were Mexican bean beetle, southern armyworm, pea aphid, and mites on plants as described above in this Example. With appropriate precautions to avoid contact of the solution with the test plant surfaces, 25 ml of a test solution, prepared as above to contain the desired amount of active ingredient, were poured evenly over the surface of the soil in which the plant was growing. The treated plants were maintained under normal growing conditions for three days to permit translocation of the toxicant, after which the leaves were infested. Two days after infestation, counts of living and dead insects were made.

Mexican bean beetle [7] = test: Initial contact activity, leaf dip, Mexican bean beetle; type: in vivo, Epilachna varivestis Muls.; conditions: Epilachna varivestis, foliar, 48 h, initial, BB, 48 hours, read-out: Percent Kill
Description: as §1

Mexican bean beetle [8] = test: Systemic activity, soil-watering, Mexican bean beetle; type: in vivo, Epilachna varivestis Muls.; conditions: Epilachna varivestis, 48 h, systemic, BB, read-out: Percent Kill
Description: as §1, §3

Milkweed bug [9] = test: Residual (7-day) contact activity, milkweed bug; type: in vivo, Oncopeltus fasciatus [Dallas]; conditions: Oncopeltus fasciatus, 168 h, residual 7-day, MWB, read-out: Percent Kill
Description: as §1, §2

Pea aphid [10] = test: Initial contact activity, leaf dip, pea aphid; type: in vivo, Acyrthosiphon pisum [Harris]; conditions: Acyrthosiphon pisum, foliar, 48 h, initial, PA, 48 hours, read-out: Percent Kill
Description: as §1

Plum curculio = test: Residual (7-day) contact activity, plum curculio; type: in vivo, Conotrachelus nenuphar [Herbst]; conditions: Conotrachelus nenuphar, 168 h, residual 7-day, PC, read-out: Percent Kill
Description: as §1, §2

Southern armyworm [11] = test: Residual (7-day) contact activity, southern armyworm; type: in vivo, Spodoptera eridania [Cram.]; conditions: Spodoptera eridania, 168 h, residual 7-day, AW, read-out: Percent Kill
Description: as §1, §2

Confused flour beetle = test: Residual (7-day) contact activity, confused flour beetle; type: in vivo, Tribolium confusum duVal; conditions: Tribolium confusum, 168 h, residual 7-day, FB, read-out: Percent Kill
Description: as §1, §2

Two-spotted spider mite [12] = test: Initial contact activity, leaf dip, two-spotted spider mite; type: in vivo, Tetranychus urticae Koch; conditions: Tetranychus urticae, foliar, 48 h, initial, SM, 48 hours, read-out: Percent Kill
Description: as §1

Compound: CSC(C)(C)C=NOC(=O)N(C)SN(C)Cc1ccccc1 [Example I, 2-methyl-2-(methylthio)propanol O-[(N-benzyl-N-methylaminosulfenyl)(methyl)carbamoyl]oxime]
- mortality at 312 ppm (Granary Weevil; 312 PPM): 41%
- mortality at 1250 ppm (Granary Weevil; 1250 PPM): 100%
- mortality at 10 ppm (Milkweed bug [1]; 10 PPM): 5%
- mortality at 39 ppm (Milkweed bug [1]; 39 PPM): 80%
- mortality at 156 ppm (Milkweed bug [1]; 156 PPM): 100%
- mortality at 1250 ppm (Milkweed bug [1]; 1250 PPM): 100%
- mortality at 156 ppm (Pea aphid [2]; 156 PPM): 0%
- mortality at 312 ppm (Pea aphid [2]; 312 PPM): 6.3%
- mortality at 1250 ppm (Pea aphid [2]; 1250 PPM): 100%
- mortality at 312 ppm (Mexican bean beetle [3]; 312 PPM): 0%
- mortality at 1250 ppm (Mexican bean beetle [3]; 1250 PPM): 89%
- mortality at 156 ppm (Southern armyworm [4]; 156 PPM): 0%
- mortality at 312 ppm (Southern armyworm [4]; 312 PPM): 24%
- mortality at 625 ppm (Southern armyworm [4]; 625 PPM): 25%
- mortality at 1250 ppm (Southern armyworm [4]; 1250 PPM): 33%
- mortality at 156 ppm (Two-spotted spider mite [5]; 156 PPM): 3.2%
- mortality at 312 ppm (Two-spotted spider mite [5]; 312 PPM): 63%
- mortality at 1250 ppm (Two-spotted spider mite [5]; 1250 PPM): 99.5%
- mortality at 2.5 ppm (Two-spotted spider mite [6]; 2.5 PPM): 0.9%
- mortality at 5 ppm (Two-spotted spider mite [6]; 5 PPM): 2.3%
- mortality at 10 ppm (Two-spotted spider mite [6]; 10 PPM): 4.3%
- mortality at 156 ppm (Mexican bean beetle [7]; 156 PPM): 82%
- mortality at 312 ppm (Mexican bean beetle [7]; 312 PPM): 94%
- mortality at 625 ppm (Mexican bean beetle [7]; 625 PPM): 100%
- mortality at 1250 ppm (Mexican bean beetle [7]; 1250 PPM): 100%
- mortality at 39 ppm (Mexican bean beetle [8]; 39 PPM): 0%
- mortality at 156 ppm (Mexican bean beetle [8]; 156 PPM): 75%
- mortality at 156 ppm (Milkweed bug [9]; 156 PPM): 90%
- mortality at 312 ppm (Milkweed bug [9]; 312 PPM): 95%
- mortality at 1250 ppm (Milkweed bug [9]; 1250 PPM): 100%
- mortality at 10 ppm (Pea aphid [10]; 10 PPM): 20%
- mortality at 39 ppm (Pea aphid [10]; 39 PPM): 62%
- mortality at 156 ppm (Pea aphid [10]; 156 PPM): 100%
- mortality at 1250 ppm (Pea aphid [10]; 1250 PPM): 100%
- mortality at 156 ppm (Plum curculio; 156 PPM): 23%
- mortality at 312 ppm (Plum curculio; 312 PPM): 43%
- mortality at 1250 ppm (Plum curculio; 1250 PPM): 20%
- mortality at 312 ppm (Southern armyworm [11]; 312 PPM): 0%
- mortality at 1250 ppm (Southern armyworm [11]; 1250 PPM): 91%
- mortality at 312 ppm (Confused flour beetle; 312 PPM): 0%
- mortality at 1250 ppm (Confused flour beetle; 1250 PPM): 2.6%
- mortality at 10 ppm (Two-spotted spider mite [12]; 10 PPM): 96%
- mortality at 39 ppm (Two-spotted spider mite [12]; 39 PPM): 98%
- mortality at 156 ppm (Two-spotted spider mite [12]; 156 PPM): 100%
- mortality at 1250 ppm (Two-spotted spider mite [12]; 1250 PPM): 100%
